Reference: article PMC11253855, “Phosphonodiamidate prodrugs of phosphoantigens (ProPAgens) exhibit potent Vγ9/Vδ2 T cell activation and eradication of cancer cells” (RSC Medicinal Chemistry, 2024)

How the values were obtained:
cancer patients = system: cancer patients; set-up: method as in PMID 18301889, PMID 20563721; details: in combination with a low dose of IL-2; cited from earlier work
Vγ9/Vδ2 T cells = test: In vitro Vγ9/Vδ2 T cell activation assay (PBMCs, CD69+ CD25+ by flow cytometry); type: cell-based, human; details: Homo sapiens, T-cell, read-out: EC50 (activation of Vγ9/Vδ2 T cells)
Procedure: Subsequently, we studied the ability of these HMBP phosphonodiamidate ProPAgens to activate Vγ9/Vδ2 T cells and elicit their lysis of cancer cells in vitro. For this, peripheral blood mononuclear cells (PBMCs) derived from healthy donors and containing Vγ9/Vδ2 T cells were incubated with increasing concentrations of zoledronate or phosphonodiamidate HMBP ProPAgens 9a–d and 14a–d (up to 100 μM) (Fig. 4). Peripheral blood γδ T cells lack appreciable levels of surface CD69 or CD25 under steady-state conditions, but TCR stimulation upregulates both T cell activation markers.[6] Thus, PAg-responsive Vγ9/Vδ2 T cells were then assessed for the upregulation of CD69 and CD25.
Fig. 4 In vitro phosphonodiamidate ProPAgen-mediated activation of Vγ9/Vδ2 T cells, following overnight incubation with zoledronate, and HMBP ProPAgens 9a–d and 14a–d. Levels of activation are represented as % of Vγ9/Vδ2 T cells that are CD69+ CD25+. Data is shown as mean ± SE (n = 4). (A) Activation of Vγ9/Vδ2 stimulated by phosphonodiamidate ProPAgens 9a–d. (B) Activation of Vγ9/Vδ2 stimulated by ProPAgens 14a–d. (C) Activation of Vγ9Vδ2 stimulated by zoledronate (Zol). (D) EC50 values were calculated using GraphPad Prism v9 based on the results of the activation assay.
As for the activation of Vγ9/Vδ2 T cells by the phosphonodiamidate ProPAgens (9a–d and 14a–d), these were initially tested using a concentration range from […] to 100 μM (Fig. 4A and B).
Healthy donor peripheral blood mononuclear cells (PBMCs) were harvested as previously described.[20] To assess the activation of Vγ9/Vδ2 T cells, PBMCs were seeded into U-bottom tissue culture-treated 96-well plates at a cell density of 500 000 cells per well. The cells were incubated with medium-only (control), in the presence of zoledronate at 10 pM to 100 μM, and with HMBP ProPAgens initially at 10 pM to 100 μM, and then at 1 aM to 100 μM for compounds 9d and 14d in a separate experiment. The cells were incubated at 37 °C/5% CO2 overnight, and stained by flow cytometry for the following markers: viability (Zombie Aqua 1 : 400), CD3 (BV421 1 : 100), CD8 (BV650 1 : 200), Vγ9 (PEcy5 1 : 400), Vδ2 (APC 1 : 200), CD69 (PE 1 : 25), CD25 (FITC 1 : 100). The samples were acquired via LSRFortessa X20 (BD Biosciences), and the data obtained were analyzed using FlowJo v10 and GraphPad Prism v9 software.

[1] = Human serum stability assay (31P NMR); type: in vitro ADME; details: 37 °C, read-out: human serum stability t1/2
Procedure: Upon synthesis, we first studied whether these phosphonodiamidate ProPAgens are stable in human serum. As a representative of this class of phosphonodiamidate ProPAgens in the serum stability studies, we chose ProPAgen 9b, which has an iPr ester like the two FDA-approved phosphoramidate prodrugs, sofosbuvir and tenofovir alafenmide.[24,33] Thus, ProPAgen 9b was incubated with human serum at 37 °C for […] and monitored the sample by ^31P NMR, as we reported previously.[20] […] Following the incubation of the phosphonodiamidate ProPAgen 9b with human serum and monitoring of the sample by ^31P-NMR, these original 9b^31P-NMR peaks remained present through the 7.5 h of the study, and no new ^31P-NMR peaks were observed. […] This stability profile is in line with the aryloxy diester phosphoramidate prodrugs of these monophosphonates that we reported[20] before and that of the analogous symmetrical nucleoside phosphorodiamidate prodrugs.[26]
Fig. 2 Stability of the HMBP phosphonodiamidate ProPAgen 9b in human serum at 37 °C for 7.5 h as monitored by ^31P NMR. […]
This experiment was carried out as previously reported.[20,26,40] […] After recording the first ^31P NMR data, 0.3 mL human serum (Merck Life Sciences) was added and monitored by NMR. […] Recorded data were processed and analyzed with Bruker Topspin 2.1 software.

carboxypeptidase Y = molecular target: T1, carboxypeptidase Y (Saccharomyces cerevisiae, UniProt P00729); test: Carboxypeptidase Y assay (31P NMR); type: in vitro ADME; details: recombinant carboxypeptidase Y, 37 °C, 6.5 h
T1 sequence (P00729 112-532): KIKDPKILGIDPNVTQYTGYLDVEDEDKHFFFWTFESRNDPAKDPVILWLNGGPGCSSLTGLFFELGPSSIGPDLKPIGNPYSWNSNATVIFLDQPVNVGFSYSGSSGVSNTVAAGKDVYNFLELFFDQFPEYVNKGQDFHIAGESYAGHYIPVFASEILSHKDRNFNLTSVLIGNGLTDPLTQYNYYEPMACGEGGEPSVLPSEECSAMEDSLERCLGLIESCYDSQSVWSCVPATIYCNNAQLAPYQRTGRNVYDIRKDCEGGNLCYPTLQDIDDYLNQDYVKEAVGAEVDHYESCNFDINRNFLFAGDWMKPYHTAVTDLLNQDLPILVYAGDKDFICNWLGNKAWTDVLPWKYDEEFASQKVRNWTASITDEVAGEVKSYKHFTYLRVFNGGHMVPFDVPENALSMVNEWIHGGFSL
Procedure: Fig. 3 Metabolism of diamidate ProPAgens.
With this postulated mechanism of phosphonodiamidate prodrugs in mind, we subsequently incubated the phosphonodiamidate ProPAgen 9b with recombinant carboxypeptidase Y at 37 °C and monitored the reaction by ^31P-NMR for 6.5 h. […] Upon addition of carboxypeptidase Y and within 0.5 h, a new ^31P NMR triplet (δP = 6.82, 7.27 and 7.72 ppm) appeared and became prominent as the assay proceeded while the original ^31P NMR peaks (δP = 14.16, 14.67 and 15.14 ppm) corresponding to ProPAgen 9b reduced over time.
This experiment was carried out as previously reported.[20,26,40] 5.0 mg of the phosphonodiamidate ProPAgen 9b was dissolved in 0.2 mL of acetone, and 0.4 mL of Trizma buffer (pH 7.4) was added followed by 0.5 mg carboxypeptidase Y in 0.2 ml Trizma buffer (pH 7.4). The experiment was run on NMR phosphorus mode and scanned every half an hour for 6.5 h. The incubation temperature was 37 °C. Recorded data were processed and analyzed with Bruker Topspin 2.1 software.

| SMILES | safety and tolerability in cancer patients (cancer patients) | EC50 (Vγ9/Vδ2 T cells) [µM] | half-life at 10 mg/mL [1] [h] | carboxypeptidase Y-mediated breakdown (carboxypeptidase Y) |
| --- | --- | --- | --- | --- |
| CC(O)(CBr)CCOP(=O)(O)OP(=O)(O)O (stereo not shown) [BrHPP, bromohydrin pyrophosphate] | safe and well tolerated | – | – | – |
| C/C(=C\CC(F)(F)P(=O)(N[C@@H](C)C(=O)OC(C)C)N[C@@H](C)C(=O)OC(C)C)CO [9b, Diisopropyl 2,2′-((((E)-1,1-difluoro-5-hydroxy-4-methylpent-3-en-1-yl)phosphoryl)bis(azanediyl))(2S,2′S)-dipropionate] | – | 0.167 | > 7.5 | not fully metabolised |
